Measured values reported in patent US6479435B1, “Diaryl ethers and processes for their preparation and herbicidal and desiccant compositions containing them” (ISK Americas Incorporated, priority 1997, dated 2002).

Assays:
Assay type in all cases: in vivo
[1] = test system: lambsquarters (Chenopodium album, CHEAL); experiment: Post-emerge greenhouse herbicide test, phytotoxicity rating; conditions: Chenopodium album, post-emergence, 336 h, 14 days after application, scale 0-100; for pest or weed control at 63 g/ha: rate 63 g ai/ha; for pest or weed control at 500 g/ha: rate 500 g ai/ha
How it was run: (§1)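 Compounds in acetone with 0.25% v/v non-ionic surfactant were track-sprayed at 187 l/ha over plants at the 2-3 leaf stage, at 63 to 1000 g ai/ha. Pots were bottom-watered. Injury was scored visually 14 days later on a 0-100 scale, where 0 is no damage and 100 is complete plant death.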

[2] = test system: redroot pigweed (Amaranthus retroflexus, AMARE); experiment: as above; conditions: Amaranthus retroflexus, post-emergence, 336 h, 14 days after application, scale 0-100; for pest or weed control at 63 g/ha: rate 63 g ai/ha; for pest or weed control at 500 g/ha: rate 500 g ai/ha
How it was run: as §1

[3] = test system: ivyleaf morningglory (Ipomoea hederacea, IPOHE); experiment: as above; conditions: Ipomoea, post-emergence, 336 h, 14 days after application, scale 0-100; for pest or weed control at 63 g/ha: rate 63 g ai/ha; for pest or weed control at 500 g/ha: rate 500 g ai/ha
How it was run: as §1

[4] = test system: large crabgrass (Digitaria sanguinalis, DIGSA); experiment: as above; conditions: Digitaria sanguinalis, post-emergence, 336 h, 14 days after application, scale 0-100; for pest or weed control at 63 g/ha: rate 63 g ai/ha; for pest or weed control at 500 g/ha: rate 500 g ai/ha
How it was run: as §1

[5] = test system: green foxtail (Setaria viridis, SETVI); experiment: as above; conditions: Setaria viridis, post-emergence, 336 h, 14 days after application, scale 0-100; for pest or weed control at 63 g/ha: rate 63 g ai/ha; for pest or weed control at 500 g/ha: rate 500 g ai/ha
How it was run: as §1

[6] = test system: sicklepod (Cassia obtusifolia, CASOB); experiment: as above; conditions: Senna obtusifolia, post-emergence, 336 h, 14 days after application, scale 0-100; for pest or weed control at 63 g/ha: rate 63 g ai/ha; for pest or weed control at 500 g/ha: rate 500 g ai/ha
How it was run: as §1

[7] = test system: lambsquarters (Chenopodium album, CHEAL); experiment: Pre-emerge greenhouse herbicide test, phytotoxicity rating; conditions: Chenopodium album, pre-emergence, 336 h, 14 days after application, rating scale 0-100; for pest or weed control at 125 g/ha: Rate 125 g al/ha; for pest or weed control at 500 g/ha: Rate 500 g al/ha
How it was run: (§2)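 Seeds sown in sandy loam mix one day before track-sprayer application of compounds in acetone at 125–1000 g ai/ha (187 l/ha), then surface-watered to incorporate and bottom-watered. Visual rating 14 days after application on a 0–100 scale (0 = no damage, 100 = all plants dead).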

[8] = test system: redroot pigweed (Amaranthus retroflexus, AMARE); experiment: as above; conditions: Amaranthus retroflexus, pre-emergence, 336 h, 14 days after application, rating scale 0-100; for pest or weed control at 125 g/ha: Rate 125 g al/ha; for pest or weed control at 500 g/ha: Rate 500 g al/ha
How it was run: as §2

[9] = test system: barnyardgrass (Echinochloa crusgalli, ECHCG); experiment: as above; conditions: Echinochloa crus-galli, pre-emergence, 336 h, 14 days after application, rating scale 0-100; for pest or weed control at 125 g/ha: Rate 125 g al/ha; for pest or weed control at 500 g/ha: Rate 500 g al/ha
How it was run: as §2

[10] = test system: velvetleaf (Abutilon theophrasti, ABUTH); experiment: as above; conditions: Abutilon theophrasti, pre-emergence, 336 h, 14 days after application, rating scale 0-100; for pest or weed control at 125 g/ha: Rate 125 g al/ha; for pest or weed control at 500 g/ha: Rate 500 g al/ha
How it was run: as §2

[11] = test system: ivyleaf morningglory (Ipomoea hederacea, IPOHE); experiment: as above; conditions: Ipomoea, pre-emergence, 336 h, 14 days after application, rating scale 0-100; for pest or weed control at 125 g/ha: Rate 125 g al/ha; for pest or weed control at 500 g/ha: Rate 500 g al/ha
How it was run: as §2

[12] = test system: Johnsongrass (Sorghum halepense, SORHA); experiment: as above; conditions: Sorghum halepense, pre-emergence, 336 h, 14 days after application, rating scale 0-100; for pest or weed control at 125 g/ha: Rate 125 g al/ha; for pest or weed control at 500 g/ha: Rate 500 g al/ha
How it was run: as §2

[13] = test system: large crabgrass (Digitaria sanguinalis, DIGSA); experiment: as above; conditions: Digitaria sanguinalis, pre-emergence, 336 h, 14 days after application, rating scale 0-100; for pest or weed control at 125 g/ha: Rate 125 g al/ha; for pest or weed control at 500 g/ha: Rate 500 g al/ha
How it was run: as §2

[14] = test system: green foxtail (Setaria viridis, SETVI); experiment: as above; conditions: Setaria viridis, pre-emergence, 336 h, 14 days after application, rating scale 0-100; for pest or weed control at 125 g/ha: Rate 125 g al/ha; for pest or weed control at 500 g/ha: Rate 500 g al/ha
How it was run: as §2

[15] = test system: sicklepod (Cassia obtusifolia, CASOB); experiment: as above; conditions: Senna obtusifolia, pre-emergence, 336 h, 14 days after application, rating scale 0-100; for pest or weed control at 125 g/ha: Rate 125 g al/ha; for pest or weed control at 500 g/ha: Rate 500 g al/ha
How it was run: as §2

Nn1c(C(F)(F)F)cc(=O)n(-c2cc(Oc3ncccc3C(F)(F)F)c(Cl)cc2F)c1=O [Compound 9-7, 1-Amino-3-[4-chloro-2-fluoro-5-(3-trifluoromethyl-2-pyridyloxy)phenyl]-6-trifluoromethyl-1,2,3,4-tetrahydropyrimidine-2,4-dione]
pest or weed control at 63 g/ha [1]: 100% | pest or weed control at 500 g/ha [1]: 100% | pest or weed control at 63 g/ha [2]: 100% | pest or weed control at 500 g/ha [2]: 100% | pest or weed control at 63 g/ha [3]: 100% | pest or weed control at 500 g/ha [3]: 100% | pest or weed control at 63 g/ha [4]: 10% | pest or weed control at 500 g/ha [4]: 30% | pest or weed control at 63 g/ha [5]: 40% | pest or weed control at 500 g/ha [5]: 70% | pest or weed control at 63 g/ha [6]: 90% | pest or weed control at 500 g/ha [6]: 90% | pest or weed control at 125 g/ha [7]: 100% | pest or weed control at 500 g/ha [7]: 100% | pest or weed control at 125 g/ha [8]: 100% | pest or weed control at 500 g/ha [8]: 100% | pest or weed control at 125 g/ha [9]: 90% | pest or weed control at 500 g/ha [9]: 100% | pest or weed control at 125 g/ha [10]: 100% | pest or weed control at 500 g/ha [10]: 100% | pest or weed control at 125 g/ha [11]: 70% | pest or weed control at 500 g/ha [11]: 100% | pest or weed control at 125 g/ha [12]: 90% | pest or weed control at 500 g/ha [12]: 100% | pest or weed control at 125 g/ha [13]: 100% | pest or weed control at 500 g/ha [13]: 100% | pest or weed control at 125 g/ha [14]: 100% | pest or weed control at 500 g/ha [14]: 100% | pest or weed control at 125 g/ha [15]: 40% | pest or weed control at 500 g/ha [15]: 100%

Nn1c(C(F)(F)F)cc(=O)n(-c2cc(Oc3ccccc3C(F)(F)F)c(Cl)cc2F)c1=O [Compound 9-24, 1-amino-3-[4-chloro-2-fluoro-5-(2-trifluoromethylphenoxy)phenyl]-6-trifluoromethyl-1,2,3,4-tetrahydropyrimidine-2,4-dione]
pest or weed control at 63 g/ha [1]: 100% | pest or weed control at 500 g/ha [1]: 100% | pest or weed control at 63 g/ha [2]: 100% | pest or weed control at 500 g/ha [2]: 100% | pest or weed control at 63 g/ha [3]: 100% | pest or weed control at 500 g/ha [3]: 100% | pest or weed control at 63 g/ha [4]: 40% | pest or weed control at 500 g/ha [4]: 75% | pest or weed control at 63 g/ha [5]: 70% | pest or weed control at 500 g/ha [5]: 95% | pest or weed control at 63 g/ha [6]: 30% | pest or weed control at 500 g/ha [6]: 80% | pest or weed control at 125 g/ha [7]: 100% | pest or weed control at 500 g/ha [7]: 100% | pest or weed control at 125 g/ha [8]: 95% | pest or weed control at 500 g/ha [8]: 100% | pest or weed control at 125 g/ha [9]: 60% | pest or weed control at 500 g/ha [9]: 70% | pest or weed control at 125 g/ha [10]: 99% | pest or weed control at 500 g/ha [10]: 100% | pest or weed control at 125 g/ha [11]: 30% | pest or weed control at 500 g/ha [11]: 30% | pest or weed control at 125 g/ha [12]: 30% | pest or weed control at 500 g/ha [12]: 90% | pest or weed control at 125 g/ha [13]: 90% | pest or weed control at 500 g/ha [13]: 100% | pest or weed control at 125 g/ha [14]: 100% | pest or weed control at 500 g/ha [14]: 100% | pest or weed control at 125 g/ha [15]: 30% | pest or weed control at 500 g/ha [15]: 0%

Nn1c(C(F)(F)F)cc(=O)n(-c2cc(Oc3ncccc3[N+](=O)[O-])c(Cl)cc2F)c1=O [Compound 9-1, 1-amino-3-[4-chloro-2-fluoro-5-(3-nitro-2-pyridyloxy)phenyl]-6-trifluoromethyl-1,2,3,4-tetrahydropyrimidine-2,4-dione]
pest or weed control at 63 g/ha [1]: 95% | pest or weed control at 500 g/ha [1]: 100% | pest or weed control at 63 g/ha [2]: 100% | pest or weed control at 500 g/ha [2]: 100% | pest or weed control at 63 g/ha [3]: 100% | pest or weed control at 500 g/ha [3]: 100% | pest or weed control at 63 g/ha [4]: 20% | pest or weed control at 500 g/ha [4]: 50% | pest or weed control at 63 g/ha [5]: 20% | pest or weed control at 500 g/ha [5]: 90% | pest or weed control at 63 g/ha [6]: 30% | pest or weed control at 500 g/ha [6]: 30% | pest or weed control at 125 g/ha [7]: 100% | pest or weed control at 500 g/ha [7]: 100% | pest or weed control at 125 g/ha [8]: 100% | pest or weed control at 500 g/ha [8]: 100% | pest or weed control at 125 g/ha [9]: 95% | pest or weed control at 500 g/ha [9]: 100% | pest or weed control at 125 g/ha [10]: 100% | pest or weed control at 500 g/ha [10]: 100% | pest or weed control at 125 g/ha [11]: 100% | pest or weed control at 500 g/ha [11]: 100% | pest or weed control at 125 g/ha [12]: 95% | pest or weed control at 500 g/ha [12]: 99% | pest or weed control at 125 g/ha [13]: 40% | pest or weed control at 500 g/ha [13]: 100% | pest or weed control at 125 g/ha [14]: 99% | pest or weed control at 500 g/ha [14]: 100% | pest or weed control at 125 g/ha [15]: 30% | pest or weed control at 500 g/ha [15]: 90%
